# Assay results taken from ChEMBL document CHEMBL3507680, “University of Dundee, Gates Library screen for HepG2 cell viability”.
# Test: Human HepG2 cell viability assay in 384 well format
# Assay type: toxicity, cell-based
# Set-up: dose 125 nL, time 70.5 hour; concentration not given beside the values
# Settings: HepG2 cells, read-out: Inhibition
row,Compound,cytotoxicity at 70.5 h
1,Cc1ccn(CCC(=O)NC(C)Cc2ccco2)n1 (configuration not stated),-6.56%
2,CN(C)C(C(=O)NCCS(=O)(=O)N(C)C)c1cccc(F)c1 (configuration not stated),8.21%
3,Cc1cc(C)c(CNC(=O)NCc2cc(F)cc(F)c2)c(=O)[nH]1,-3.54%
4,Fc1cccnc1OC[C@@]12CCO[C@@H]1CCN(CC1CCOCC1)C2,-9.65%
5,COC(=O)CNC(=O)c1sccc1N(C)S(=O)(=O)c1ccc(Cl)cc1,2.69%
6,Cc1ncsc1C(=O)N1CCCC1c1c(C)nn(C)c1C (configuration not stated),-1.63%
7,Cc1nc([C@@H]2C[C@H]3CN(Cc4ccc5c(c4)OCO5)C[C@H]3O2)no1,-10.1%
8,CCS(=O)(=O)N1CCC2(CC1)CN(Cc1ccccn1)C(=O)CO2,-11.1%
9,Cc1nc(C2(O)CCCNCC2)sc1CCOc1ccc(F)cc1 (configuration not stated),16.3%
10,COc1cccc(CNc2ccc(F)c(Cl)c2)c1O,-4.8%
11,CCc1noc(C(C)N2CCN(Cc3ncc(C(C)(C)C)o3)CC2)n1 (configuration not stated),11.8%
12,CN1C(=O)C2(CCN(C(=O)c3ccccc3)CC2)c2cccc(F)c21,0.835%
13,CCc1ccc(C(=O)Nc2ccc(CC3CC(=O)NC3=O)cc2)cc1 (configuration not stated),1.34%
14,CS(=O)(=O)NCCN1CCCC1c1noc(C2CC2)n1 (configuration not stated),19.5%
15,N#Cc1ccccc1C(=O)N1C[C@@H](CN2CCCCC2)[C@@H](CO)C1,-5.21%
16,COC(=O)c1ccoc1CN(C)CC(=O)NC1CC1,-5.08%
17,CC(C)c1ccc(CN2CCC3(CCCN(c4nncs4)C3)C2)cc1 (configuration not stated),-4.12%
18,O=C([C@H]1CC[C@@H]2[C@@H](CCN2C2CCOCC2)O1)N1CCOCC1,-6.52%
19,Cn1cnnc1CNC(=O)Nc1cc(C(F)(F)F)c[nH]c1=O,-7.22%
20,Cc1cc(NC(=O)NCC(C)N2CCOCC2)n(C)n1 (configuration not stated),-6.14%
21,CN(Cc1cn2c(n1)CN(CC1CC1)CC2)Cc1ccco1,-11.8%
22,Cc1cc(C(=O)N2CCC3(CC2)C(=O)NCCN3CC(C)C)c(C)o1,-2.92%
23,CC(CO)(NCc1noc(Cc2ccccc2)n1)C1CCCCC1 (configuration not stated),-0.885%

row,Compound,cytotoxicity at 70.5 h
1,CC(C)NC(=O)Nc1ccc(CNCc2cccc(C#N)c2)cc1,-3.33%
2,CCn1ccnc1CN1CCOC(Cn2cccn2)C1 (configuration not stated),22.6%
3,O=C(CCSc1ccc2c(c1)OCCO2)NCC1CCS(=O)(=O)C1 (configuration not stated),-3.43%
4,c1ccc(CCN2CC(n3cccn3)C2)nc1,-15.6%
5,O=C(c1cccnc1)N1CCC2(CC1)CN(c1ccccn1)CCO2,-13.7%
6,Cc1csc([C@H]2C[C@@H]3CCN(C(=O)c4ccnnc4)C[C@H]3O2)n1,-1.58%
7,O=C1CN(C(=O)C2CCOC2)CCN1Cc1ccc(Cl)cc1 (configuration not stated),23.8%
8,CN(CC(=O)NC(Cc1ccsc1)c1cccnc1)Cc1ccccn1 (configuration not stated),31.3%
9,Cc1cc(O)nc(C2CCCN(CCO)C2)n1 (configuration not stated),-1.84%
10,CCn1nc(C)c(C(=O)NCc2csc(C3CC3)n2)c1C,1.51%
11,CN(c1cccnn1)C1CCN(C(=O)c2n[nH]c3c2CCC3)CC1,-4.09%
12,CN(CCc1ccccn1)C1CCCN(Cc2noc(C3CC3)n2)C1 (configuration not stated),-4.84%
13,Cc1cccc(CN(C(=O)CCn2cncn2)C(C)C)c1,-9.18%
14,CCOC(=O)N1CCC2(CCNC2)C1 (configuration not stated),-5.56%
15,CCOc1cc(C(=O)NS(C)(=O)=O)cc(-c2ccccc2)c1OC,0.968%
16,CCc1cc(N2CCC(NC(=O)CCC3CCCO3)CC2)ncn1 (configuration not stated),25.3%
17,Cc1noc(C)c1-c1cc(CCC2CN(CCC(N)=O)CCO2)ncn1 (configuration not stated),-2.2%
18,COCc1ccccc1CNCc1c(C)nn(C)c1N(C)C,-0.163%
19,CCN(CC)C(=O)c1cnc(Sc2nccn2C)c(Cl)c1,-3.32%
20,CC(C)C(Sc1cccs1)C(=O)NCc1cccnc1 (configuration not stated),-14.6%
21,c1cnc2c(C3CCN(Cc4ccsc4)CC3)n[nH]c2n1,42.8%
22,Cc1noc(C(C)SCc2ccccn2)n1 (configuration not stated),-8.37%
23,Cc1cc(CN(C)C(=O)NCC2CCS(=O)(=O)C2)no1 (configuration not stated),-9.21%

row,Compound,cytotoxicity at 70.5 h
1,Cc1ccn(CC(=O)N2CC[C@@H](c3ccc4ccccc4c3)[C@H](O)C2)n1,-10.1%
2,COCCNCC1(O)CCCN(Cc2ccc(F)c(F)c2)C1=O (configuration not stated),-2.23%
3,Nc1cc(C(=O)NCC2CCN(Cc3ccncc3F)C2)ccn1 (configuration not stated),20.9%
4,Oc1ccccc1CN1C[C@H](O)C[C@H]1c1nc(Cc2ccccc2)no1,-6.19%
5,c1ccc(CO[C@H]2C[C@@H]3CN(Cc4cncnc4)C[C@@H]3C2)cc1,-5.58%
6,CN(C)c1cncc(C2CCCN(c3cnccn3)C2)n1 (configuration not stated),-6.42%
7,Cn1c(=O)n(C)c2cc(NS(=O)(=O)Cc3cccc(F)c3)ccc21,-6.9%
8,Cc1nonc1CN(C)CC1(O)CCCN(CCC2CCCCC2)C1=O (configuration not stated),2.77%
9,c1cc(CN2CCc3ncc(CN4CCOCC4)n3CC2)cs1,16.8%
10,COc1ccccc1N1CCN(CC[C@H](O)c2ccccc2)CC1=O,-12%
11,CC1(C)Oc2ccc(S(=O)(=O)NCCCn3ccnc3)cc2NC1=O,28.6%
12,N#Cc1cccnc1N1CCC(Nc2ccccc2)C1 (configuration not stated),-8.64%
13,c1cnc2c(c1)cc(C1CCOCC1)n2CCN1CCOCC1,-11.3%
14,CCN1CCCC1CN(CCN(C)C)S(=O)(=O)c1ccccc1C#N (configuration not stated),29.4%
15,Cn1cc(C#N)cc1C(=O)N1CCC2(CCCN(CC3CCC3)C2=O)C1 (configuration not stated),-4.46%
16,CNC(=O)[C@H]1CC[C@@H]2[C@@H](CCN2C(=O)N(C)C)O1,-5.62%
17,O=c1cc(N2CCCC2)cnn1Cc1noc(C2CCCO2)n1 (configuration not stated),7.8%
18,CCNc1ncc(CN2C[C@H]3CC[C@@H]2CN(C(=O)C2CCC2)C3)cn1,-7.7%
19,N#Cc1cccc(N2CCC3(CC2)Nc2ccccc2NC3=O)n1,-5.8%
20,Cn1ccc(C(=O)N2CCCC(CNS(C)(=O)=O)C2)cc1=O (configuration not stated),-8.6%
21,CC(C)Oc1ccc(NCc2ccc([S+](C)[O-])cc2)c(F)c1 (configuration not stated),7.01%
22,CNC(=O)C1Cn2ccnc2C2(CCN(Cc3cccnc3)CC2)O1 (configuration not stated),2.48%
23,COCC(=O)N1C[C@H]2CNC[C@@]2(C(=O)NCc2cc(C)n[nH]2)C1,-5.27%

row,Compound,cytotoxicity at 70.5 h
1,CCS(=O)(=O)N1CC[C@H]2[C@H]1CC(=O)N2Cc1csc(C)n1,-1.34%
2,CSCCC(=O)N1CCC(Oc2cc(C)ccc2F)(C(=O)O)CC1,-7.4%
3,Cc1cc(N2CCC(NC(=O)CCc3ccco3)CC2)nc(C)n1,11.4%
4,Cc1cc(C(F)(F)F)cc(=O)n1CCn1cc(Cl)cn1,-11.3%
5,CCN(CC)c1nc(C)cc(C(=O)Nc2ccc(Br)cc2)n1,3.54%
6,Cc1nc(CN2CCN(C)C(=O)C23CCN(C(C)C)CC3)cs1,-9.48%
7,Cc1ccccc1C1(CNC(=O)N2CCC(CC(N)=O)CC2)CC1,-4.35%
8,COCCC1(CO)CCCN(Cc2ccc(C(F)(F)F)nc2)C1 (configuration not stated),-1.12%
9,Cc1cc(CN2CCc3cncnc3C2)no1,-8.98%
10,CC(C)[C@H](NS(C)(=O)=O)C(=O)NCc1cc(-c2ccco2)nn1C,7.38%
11,Cc1cc2c(C)cc(O)cc2c(=O)o1,-14.8%
12,CC(=O)N1CCC2(CC1)CN(C)C(=O)C[C@H]2C(F)(F)F,-7.04%
13,COCC(NC(=O)c1cccnc1)c1cccc(C(F)(F)F)c1 (configuration not stated),-5.85%
14,Cc1ccsc1CN1CCC(c2cc(C(C)C)n[nH]2)CC1,-3.28%
15,Cc1noc2nc(C3CCN(Cc4ccccn4)CC3)cc(C(F)F)c12,-2.48%
16,Cn1nccc1CCNC(=O)[C@H]1CNC[C@H](C(=O)N2CCCC2)C1,0.341%
17,O=c1[nH]c2ncccc2n1C1CCNCC1,-11%
18,CC(Nc1nccc(CCC(F)(F)F)n1)c1nc(-c2ccncc2)no1 (configuration not stated),-13.3%
19,COCC1CN(C(=O)Cc2ccccn2)Cc2ncn(C)c21 (configuration not stated),-2.47%
20,COc1ccccc1C(=O)NS(=O)(=O)c1cccc(C#N)c1,-7.53%
21,Cc1ncsc1-c1nnc(C2CCN(Cc3cccc(Cl)c3)CC2)o1,-1.29%
22,Cc1nn(C)c(Cl)c1C1CCCN1C(=O)c1cc(Cl)c[nH]1 (configuration not stated),-17.6%
23,CCCNc1ncc(CN2CCC3(CC2)CNC(=O)C3)cn1,12.6%

row,Compound,cytotoxicity at 70.5 h
1,Cc1nn(CC(C)C)c(N(C)C)c1CNCc1cc2ccccc2[nH]1,5.6%
2,CN(CC(F)(F)F)C(=O)Cn1cc(NC(=O)C(C)(C)C)cn1,3.96%
3,CCC1CCCCN1Cc1ncc(-c2ccc(OC)cc2)o1 (configuration not stated),18.3%
4,CCc1cccc(OC2CN(C(=O)[C@@H](N)[C@@H](C)O)C2)c1,-8.46%
5,COCCN(Cc1cnn(C)c1)C(=O)C1CCCN(C2CCOCC2)C1 (configuration not stated),-12.6%
6,CN1[C@H]2CC[C@@H]1CN(C(=O)c1sccc1S(N)(=O)=O)CC2,-4.92%
7,Cc1noc([C@@]23CCO[C@@H]2CCN(S(=O)(=O)c2cccnc2)C3)n1,-6.17%
8,Cc1occc1C(=O)N1CCC2(CC1)CC(c1cccnc1)C(=O)N2C (configuration not stated),-17.4%
9,COc1ccccc1C(=O)Nc1c(C)cnn1CC1CC1,-21.8%
10,CCOCCC(=O)N(CCC#N)c1ccc(C)c(C)c1,-1.94%
11,OC[C@@H]1CCCN1Cc1cn(C2CCN(C3CCCC3)CC2)nn1,-4.14%
12,N#Cc1ccc(N2CCN(c3cnccn3)CC2)c(C(F)(F)F)c1,2.94%
13,O=C1C[C@H]2[C@H](CCN2Cc2ccccn2)N1CC1CC1,-15.8%
14,COCCN1CCN(Cc2ccc(F)c(C)c2)[C@H]2CS(=O)(=O)C[C@H]21,17.8%
15,CC(C)(C)OC(=O)N1CCC[C@H](NCc2cc[nH]c2)C1,-11%
16,CCOc1ccc(N2CCCN=C2NC(=O)c2ccccc2C)cc1,-12.8%
17,CCCN(C(=O)c1csnn1)C1CCCN(Cc2ccccc2)C1 (configuration not stated),-5.57%
18,CCS(=O)(=O)NC(CCSC)C(=O)Nc1cccc(C)c1C (configuration not stated),-83.4%
19,Cc1ccc(NC2CCN(C(=O)c3cc(C)no3)CC2)nn1,0.395%
20,COc1ccc(CNC(=O)NC2CCN(C)CC2)c(C(F)(F)F)c1,2.4%
